Values quoted from earlier work as cited in patent US6312728A, “Sustained release pharmaceutical preparation” (Cascade Development, Inc., priority 1999, dated 2001).
Read-outs that look alike come from different tables or passages of the source.

What was measured:
[1] = patients
[2] = in vivo
[3] = intravenous administration

Which solubility in water does the source give for `O=C1NC(=O)C(c2ccccc2)(c2ccccc2)N1` [phenytoin sodium] here?
Its solubility in water is “much more soluble”.

With `O=C1NC(=O)C(c2ccccc2)(c2ccccc2)N1` [phenytoin, 5,5-diphenyl-2,4-imidazolidinedione] as the compound, how does the “bioavailability following oral administration” value [1] read?
Its value is “great variations in bioavailability”.

And the half-life [2]?
Its half-life is > 6 h.

What about the solubility in water of the same compound?
The solubility in water was “poor solubility in water”.

What about the solubility in water (listed as free-phenytoin) of the same compound?
Its solubility in water is “practically insoluble in water”.

And the serious adverse effects [3]?
Its serious adverse effects is “serious adverse effects, including cardiac arrhythmias and hypotensioni”.
